According to patent US10889553B2, “Asymmetric triazole benzamide derivatives and the compositions and methods of treatment regarding the same” (NysnoBio Ireland DAC, priority 2017, dated 2021):
Like-named read-outs stand apart in the source and are kept apart here.

Key:
44 protein targets = assay: Selectivity screen against 44 protein targets (whole panel); assay type: binding; conditions: 10 μM; % inhibition less than 50% is considered no effect
From the text: If the % inhibition is less than 50%, the test compounds is consider to have no effect.

SW626 (ovarian) = assay: Cancer cell proliferation assay (acid phosphatase); assay type: cell-based; conditions: Homo sapiens
Outline: (§1)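 Cells seeded at 4×10^4 cells/ml were incubated overnight at 37° C., 5% CO2, then exposed to compound at varying concentrations in triplicate for 72 hrs. Proliferation was read by acid phosphatase assay (p-nitrophenol phosphate, pH 5.5, 2 hours, 405 nm minus 620 nm) as percent inhibition versus DMSO controls.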

Ovarian OAW28 (OAW2B) = assay: Cancer cell proliferation assay (acid phosphatase); assay type: cell-based; conditions: Homo sapiens, OAW-28
Outline: as §1

Mantle Cell Mino = assay: Cancer cell proliferation assay (acid phosphatase); assay type: cell-based; conditions: Homo sapiens, Table 6E
Outline: as §1

JEKO-1 (lymophoma) = assay: Cancer cell proliferation assay (acid phosphatase); assay type: cell-based; conditions: Homo sapiens
Outline: as §1

A427 (lung) = assay: Cancer cell proliferation assay (acid phosphatase); assay type: cell-based; conditions: Homo sapiens, A-427; Table 6C, data of FIG. 2
Outline: as §1

H292 (lung) = assay: Cancer cell proliferation assay (acid phosphatase); assay type: cell-based; conditions: Homo sapiens, NCI-H292; Table 6C, data of FIG. 2
Outline: as §1

Ovarian (OAW42) = assay: Cancer cell proliferation assay (acid phosphatase); assay type: cell-based; conditions: Homo sapiens, OAW-42
Outline: as §1

SKOV3 (ovarian) = assay: Cancer cell proliferation assay (acid phosphatase); assay type: cell-based; conditions: Homo sapiens, SK-OV-3; Table 6D, another set of cell proliferation assay
Outline: as §1

HT-29 (colon) = assay: Cancer cell proliferation assay (acid phosphatase); assay type: cell-based; conditions: Homo sapiens, Table 6C, data of FIG. 2
Outline: as §1

Ovarian OVCAR-3 = assay: Cancer cell proliferation assay (acid phosphatase); assay type: cell-based; conditions: Homo sapiens, Table 6E
Outline: as §1

Colo205 (colon) = assay: Cancer cell proliferation assay (acid phosphatase); assay type: cell-based; conditions: Homo sapiens, COLO 205; Table 6C, data of FIG. 2
Outline: as §1

Ovarian (A2780) = assay: Cancer cell proliferation assay (acid phosphatase); assay type: cell-based; conditions: Homo sapiens
Outline: as §1

Ovarian (ES-2) = assay: Cancer cell proliferation assay (acid phosphatase); assay type: cell-based
Outline: as §1

TOV-112D (ovarian) = assay: Cancer cell proliferation assay (acid phosphatase); assay type: cell-based; conditions: Homo sapiens, TOV112D
Outline: as §1

CDK6/CyclinD1 = CDK6/CyclinD1 (Homo sapiens, UniProt Q00534); assay: Kinase panel assay; assay type: biochemical
From the text: (§2) Compound 42 was also screened in a kinase panel assay.

PLK1 = PLK1 (Homo sapiens, UniProt P53350); assay: Kinase panel assay; assay type: biochemical
From the text: as §2

MAPK1 (ERK2) = MAPK1 (ERK2) (Homo sapiens, UniProt P28482); assay: Kinase panel assay; assay type: biochemical
From the text: as §2

MAPK14 (p38 alpha) = MAPK14 (p38 alpha) (Homo sapiens, UniProt Q16539); assay: Kinase panel assay; assay type: biochemical
From the text: as §2

ABL1 = ABL1 (Homo sapiens, UniProt P00519); assay: Kinase panel assay; assay type: biochemical
From the text: as §2

MAPK3 (ERK1) = MAPK3 (ERK1) (Homo sapiens, UniProt P27361); assay: Kinase panel assay; assay type: biochemical
From the text: as §2

PIM1 = PIM1 (Homo sapiens, UniProt P11309); assay: Kinase panel assay; assay type: biochemical
From the text: as §2

AURKA (Aurora A) = AURKA (Aurora A) (Homo sapiens, UniProt O14965); assay: Kinase panel assay; assay type: biochemical
From the text: as §2

CDK4/CyclinD1 = CDK4/CyclinD1 (Homo sapiens, UniProt P11802); assay: Kinase panel assay; assay type: biochemical
From the text: as §2

PAK4 = PAK4 (Homo sapiens, UniProt O96013); assay: Kinase panel assay; assay type: biochemical
From the text: as §2

GSK3B (GSK3 beta) = GSK3B (GSK3 beta) (Homo sapiens, UniProt P49841); assay: Kinase panel assay; assay type: biochemical
From the text: as §2

[1] = Table 6D, another set of cell proliferation assay

Chain of CDK6/CyclinD1 (Q00534 whole entry, species assumed): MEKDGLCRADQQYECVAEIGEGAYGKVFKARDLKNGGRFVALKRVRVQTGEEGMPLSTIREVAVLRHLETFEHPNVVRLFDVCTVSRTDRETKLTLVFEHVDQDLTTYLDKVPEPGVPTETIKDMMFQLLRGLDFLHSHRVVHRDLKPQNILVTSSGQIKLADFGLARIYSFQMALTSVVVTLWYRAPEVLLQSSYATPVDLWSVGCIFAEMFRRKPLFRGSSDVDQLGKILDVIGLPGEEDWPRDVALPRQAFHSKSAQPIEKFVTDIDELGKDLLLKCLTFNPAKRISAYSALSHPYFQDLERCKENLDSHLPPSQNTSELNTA
Chain of CDK6/CyclinD1 (P24385 whole entry partner, species assumed): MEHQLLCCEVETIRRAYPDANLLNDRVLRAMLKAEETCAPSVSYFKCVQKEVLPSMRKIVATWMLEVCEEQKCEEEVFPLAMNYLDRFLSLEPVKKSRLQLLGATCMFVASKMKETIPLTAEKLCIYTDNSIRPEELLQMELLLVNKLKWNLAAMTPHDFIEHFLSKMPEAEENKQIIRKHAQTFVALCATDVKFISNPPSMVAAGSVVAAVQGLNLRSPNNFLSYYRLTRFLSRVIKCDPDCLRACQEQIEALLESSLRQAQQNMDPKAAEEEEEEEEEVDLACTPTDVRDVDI
Chain of MAPK14 (p38 alpha) (Q16539 whole entry, species assumed): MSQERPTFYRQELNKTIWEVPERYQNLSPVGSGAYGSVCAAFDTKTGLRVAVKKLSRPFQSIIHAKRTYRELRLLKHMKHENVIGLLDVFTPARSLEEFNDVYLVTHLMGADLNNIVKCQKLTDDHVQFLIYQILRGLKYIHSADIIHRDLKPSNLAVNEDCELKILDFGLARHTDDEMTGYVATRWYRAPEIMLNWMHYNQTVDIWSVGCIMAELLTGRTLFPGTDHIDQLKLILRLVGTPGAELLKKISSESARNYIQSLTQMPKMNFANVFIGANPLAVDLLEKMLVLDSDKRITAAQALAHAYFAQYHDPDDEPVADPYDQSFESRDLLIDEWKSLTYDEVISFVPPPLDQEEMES
Chain of MAPK3 (ERK1) (P27361 whole entry, species assumed): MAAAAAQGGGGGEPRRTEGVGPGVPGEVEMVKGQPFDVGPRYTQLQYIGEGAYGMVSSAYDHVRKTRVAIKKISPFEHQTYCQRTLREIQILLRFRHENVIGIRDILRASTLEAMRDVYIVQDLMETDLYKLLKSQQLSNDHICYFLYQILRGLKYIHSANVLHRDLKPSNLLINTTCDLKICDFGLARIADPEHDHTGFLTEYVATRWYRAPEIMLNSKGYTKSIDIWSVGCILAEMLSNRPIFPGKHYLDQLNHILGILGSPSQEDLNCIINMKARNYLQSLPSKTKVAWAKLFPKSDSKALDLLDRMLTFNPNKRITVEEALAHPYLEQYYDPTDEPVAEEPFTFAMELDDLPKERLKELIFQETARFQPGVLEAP
Chain of ABL1 (P00519 whole entry, species assumed): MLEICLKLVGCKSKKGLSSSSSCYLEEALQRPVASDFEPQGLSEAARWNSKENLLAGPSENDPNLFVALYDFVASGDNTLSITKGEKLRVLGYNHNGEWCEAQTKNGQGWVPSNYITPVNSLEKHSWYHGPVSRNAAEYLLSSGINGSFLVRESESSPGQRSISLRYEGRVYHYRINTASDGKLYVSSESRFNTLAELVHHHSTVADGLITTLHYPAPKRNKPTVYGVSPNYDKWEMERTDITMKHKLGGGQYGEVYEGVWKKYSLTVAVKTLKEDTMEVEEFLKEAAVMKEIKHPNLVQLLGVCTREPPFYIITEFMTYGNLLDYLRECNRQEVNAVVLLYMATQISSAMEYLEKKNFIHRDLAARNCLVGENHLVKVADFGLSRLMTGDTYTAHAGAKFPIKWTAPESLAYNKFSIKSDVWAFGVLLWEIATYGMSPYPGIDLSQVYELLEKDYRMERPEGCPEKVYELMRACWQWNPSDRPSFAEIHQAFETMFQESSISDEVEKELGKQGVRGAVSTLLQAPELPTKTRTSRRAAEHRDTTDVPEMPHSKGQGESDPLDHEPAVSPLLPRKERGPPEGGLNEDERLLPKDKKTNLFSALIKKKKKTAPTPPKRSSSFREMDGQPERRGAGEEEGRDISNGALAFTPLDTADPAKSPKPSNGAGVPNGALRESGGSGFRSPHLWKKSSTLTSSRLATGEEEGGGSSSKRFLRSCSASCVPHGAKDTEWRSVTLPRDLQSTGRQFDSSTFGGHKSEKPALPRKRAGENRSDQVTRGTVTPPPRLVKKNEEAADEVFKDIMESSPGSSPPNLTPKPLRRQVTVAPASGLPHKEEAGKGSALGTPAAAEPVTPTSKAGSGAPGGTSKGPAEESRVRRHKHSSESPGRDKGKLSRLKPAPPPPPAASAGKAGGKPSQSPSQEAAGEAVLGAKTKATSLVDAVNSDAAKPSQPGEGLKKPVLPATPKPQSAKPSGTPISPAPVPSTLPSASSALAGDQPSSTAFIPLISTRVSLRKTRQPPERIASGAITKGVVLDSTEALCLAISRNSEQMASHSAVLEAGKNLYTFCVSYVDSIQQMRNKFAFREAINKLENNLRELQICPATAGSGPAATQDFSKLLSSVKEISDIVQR
Chain of GSK3B (GSK3 beta) (P49841 whole entry, species assumed): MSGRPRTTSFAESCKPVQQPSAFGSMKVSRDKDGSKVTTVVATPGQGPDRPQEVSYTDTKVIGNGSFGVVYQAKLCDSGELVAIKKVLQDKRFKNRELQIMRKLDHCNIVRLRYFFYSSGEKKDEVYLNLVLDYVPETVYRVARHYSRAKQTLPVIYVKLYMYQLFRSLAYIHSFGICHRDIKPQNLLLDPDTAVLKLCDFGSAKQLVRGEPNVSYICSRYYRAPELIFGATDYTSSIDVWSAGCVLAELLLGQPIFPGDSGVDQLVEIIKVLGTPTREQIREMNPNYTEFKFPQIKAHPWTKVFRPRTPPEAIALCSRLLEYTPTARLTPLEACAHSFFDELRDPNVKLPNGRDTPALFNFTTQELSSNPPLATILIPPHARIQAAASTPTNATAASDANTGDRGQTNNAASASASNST
Chain of AURKA (Aurora A) (O14965 whole entry, species assumed): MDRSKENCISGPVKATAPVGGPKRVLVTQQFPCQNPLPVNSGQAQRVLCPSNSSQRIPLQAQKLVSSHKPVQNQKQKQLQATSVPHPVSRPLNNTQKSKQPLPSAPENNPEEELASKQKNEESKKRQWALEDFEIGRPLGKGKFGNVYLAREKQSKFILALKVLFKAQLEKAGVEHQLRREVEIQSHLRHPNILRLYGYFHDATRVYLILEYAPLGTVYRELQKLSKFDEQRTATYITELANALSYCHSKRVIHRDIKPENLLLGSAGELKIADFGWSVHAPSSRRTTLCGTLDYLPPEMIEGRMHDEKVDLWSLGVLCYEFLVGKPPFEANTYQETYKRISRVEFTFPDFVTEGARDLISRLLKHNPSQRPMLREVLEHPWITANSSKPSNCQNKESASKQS
Chain of PIM1 (P11309 whole entry, species assumed): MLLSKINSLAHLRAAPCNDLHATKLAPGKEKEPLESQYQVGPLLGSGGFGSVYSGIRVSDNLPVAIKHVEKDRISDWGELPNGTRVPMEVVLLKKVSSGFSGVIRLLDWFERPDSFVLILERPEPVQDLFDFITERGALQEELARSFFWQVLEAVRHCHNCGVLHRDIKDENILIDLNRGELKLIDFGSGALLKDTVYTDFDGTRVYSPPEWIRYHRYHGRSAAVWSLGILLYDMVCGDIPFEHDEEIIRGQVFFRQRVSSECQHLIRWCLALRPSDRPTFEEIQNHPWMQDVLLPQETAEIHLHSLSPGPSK
Chain of CDK4/CyclinD1 (P11802 whole entry, species assumed): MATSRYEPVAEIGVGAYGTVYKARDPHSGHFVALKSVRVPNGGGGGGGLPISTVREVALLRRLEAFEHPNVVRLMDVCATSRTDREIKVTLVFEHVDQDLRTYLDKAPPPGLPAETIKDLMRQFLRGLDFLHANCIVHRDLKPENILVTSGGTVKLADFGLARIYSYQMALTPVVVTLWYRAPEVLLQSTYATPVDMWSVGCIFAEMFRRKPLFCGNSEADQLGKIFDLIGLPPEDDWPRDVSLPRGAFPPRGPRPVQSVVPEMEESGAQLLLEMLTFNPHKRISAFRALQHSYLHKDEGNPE
Chain of CDK4/CyclinD1 (P24385 whole entry partner, species assumed): as the sequence (P24385 whole entry partner, species assumed) above
Chain of MAPK1 (ERK2) (P28482 whole entry, species assumed): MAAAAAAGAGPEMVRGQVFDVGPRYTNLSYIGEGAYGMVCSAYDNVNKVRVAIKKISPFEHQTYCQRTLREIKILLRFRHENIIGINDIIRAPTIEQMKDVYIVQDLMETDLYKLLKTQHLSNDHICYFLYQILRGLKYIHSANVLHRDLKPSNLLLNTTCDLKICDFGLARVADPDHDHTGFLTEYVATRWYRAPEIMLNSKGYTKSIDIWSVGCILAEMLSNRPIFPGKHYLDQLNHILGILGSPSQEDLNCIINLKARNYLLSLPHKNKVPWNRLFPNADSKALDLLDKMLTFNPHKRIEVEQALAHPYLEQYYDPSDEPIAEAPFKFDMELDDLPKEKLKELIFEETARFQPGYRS
Chain of PLK1 (P53350 whole entry, species assumed): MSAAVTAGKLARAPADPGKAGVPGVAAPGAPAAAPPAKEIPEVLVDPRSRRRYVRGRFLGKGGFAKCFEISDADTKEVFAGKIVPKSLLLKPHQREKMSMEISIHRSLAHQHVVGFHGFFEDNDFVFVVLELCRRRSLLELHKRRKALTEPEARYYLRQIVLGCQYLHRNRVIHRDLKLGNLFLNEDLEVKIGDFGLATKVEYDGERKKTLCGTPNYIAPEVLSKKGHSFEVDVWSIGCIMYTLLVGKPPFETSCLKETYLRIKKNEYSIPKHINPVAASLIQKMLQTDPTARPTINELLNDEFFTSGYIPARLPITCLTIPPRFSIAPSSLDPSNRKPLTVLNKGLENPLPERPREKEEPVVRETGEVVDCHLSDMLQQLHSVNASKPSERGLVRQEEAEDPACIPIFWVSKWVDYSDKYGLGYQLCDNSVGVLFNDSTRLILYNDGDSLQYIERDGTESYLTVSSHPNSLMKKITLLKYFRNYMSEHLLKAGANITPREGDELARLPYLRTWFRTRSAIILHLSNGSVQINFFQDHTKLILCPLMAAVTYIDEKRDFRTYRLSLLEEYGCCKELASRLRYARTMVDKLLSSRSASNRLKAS

Cc1ccccc1C(=O)Nc1nc(NC(=O)c2ccccc2C)n(-c2ccc(OC(F)(F)F)cc2)n1 [Compound 42, N,N′-(1-(4-(trifluoromethoxy)phenyl)-1H-1,2,4-triazole-3,5-diyl)bis(2-methylbenzamide)]
effect against the 44 protein targets (44 protein targets): no effects
IC50 (SW626 (ovarian); Table 6C, data of FIG. 2): 0.3 µM
EC50 (SW626 (ovarian); [1]): 334 nM
EC50 (Ovarian OAW28 (OAW2B); [1]): 114 nM
IC50 (Ovarian OAW28 (OAW2B); Table 6E): 140 nM
IC50 (Mantle Cell Mino): 345 nM
EC50 (JEKO-1 (lymophoma); Table 6D, another set of cell proliferation assay, read-out: EC50 (nM) Mantle cell (Jeko-1)): 154 nM
IC50 (JEKO-1 (lymophoma); Table 6E, read-out: Proliferation IC50 (nM) Mantle Cell Jeko-1): 154 nM
IC50 (A427 (lung)): 0.15 µM
IC50 (H292 (lung)): 0.16 µM
EC50 (Ovarian (OAW42); [1]): 166 nM
IC50 (Ovarian (OAW42); Table 6E): 166 nM
EC50 (SKOV3 (ovarian)): 376 nM
IC50 (HT-29 (colon)): 0.2 µM
IC50 (Ovarian OVCAR-3): 140 nM
IC50 (Colo205 (colon)): 0.2 µM
EC50 (Ovarian (A2780); [1]): 58 nM
IC50 (Ovarian (A2780); Table 6E): 84 nM
EC50 (Ovarian (ES-2); [1]): 42 nM
IC50 (Ovarian (ES-2); Table 6E): 57 nM
IC50 (TOV-112D (ovarian); Table 6C, data of FIG. 2, read-out: IC50 (μM) TOV-112D (ovarian)): 0.13 µM
EC50 (TOV-112D (ovarian); Table 6D, another set of cell proliferation assay, read-out: EC50 (nM) Ovarian (TOV0112D)): 98 nM
IC50 (TOV-112D (ovarian); Table 6E, read-out: Proliferation IC50 (nM) Ovarian TOV112D): 0.103 µM
inhibition at 10 µM (CDK6/CyclinD1): 0%
inhibition at 10 µM (PLK1): 4%
inhibition at 10 µM (MAPK1 (ERK2)): 4%
inhibition at 10 µM (MAPK14 (p38 alpha)): 19%
inhibition at 10 µM (ABL1): 8%
inhibition at 10 µM (MAPK3 (ERK1)): 1%
inhibition at 10 µM (PIM1): 5%
inhibition at 10 µM (AURKA (Aurora A)): 4%
inhibition at 10 µM (CDK4/CyclinD1): 12%
inhibition at 10 µM (PAK4): 5%
inhibition at 10 µM (GSK3B (GSK3 beta)): 12%
